Data from ChEMBL document CHEMBL1201862, “PubChem BioAssay data set” (2004).
Calls of active or inactive are those of the source.

Columns and labels:
[1] = molecular target: Peroxisome proliferator-activated receptor gamma (Homo sapiens, UniProt P37231); experiment: PPARg partial agonists, dose response, cell-based, luminescence, assay provider (AID 504447); format: functional
[2] = molecular target: T1, E3 ubiquitin-protein ligase XIAP (Homo sapiens, UniProt P98170); experiment: Counter Screen using XIAP-Bir3 of the Chemical Antagonists of IAP-family anti-apoptotic proteins confirmation assay. [Related pubchem assays (depositor defined):AID1018, AID1449, AID1513, AID1638, AID1749, AID1750, AID488957, AID488963]
T1 sequence (P98170 whole entry): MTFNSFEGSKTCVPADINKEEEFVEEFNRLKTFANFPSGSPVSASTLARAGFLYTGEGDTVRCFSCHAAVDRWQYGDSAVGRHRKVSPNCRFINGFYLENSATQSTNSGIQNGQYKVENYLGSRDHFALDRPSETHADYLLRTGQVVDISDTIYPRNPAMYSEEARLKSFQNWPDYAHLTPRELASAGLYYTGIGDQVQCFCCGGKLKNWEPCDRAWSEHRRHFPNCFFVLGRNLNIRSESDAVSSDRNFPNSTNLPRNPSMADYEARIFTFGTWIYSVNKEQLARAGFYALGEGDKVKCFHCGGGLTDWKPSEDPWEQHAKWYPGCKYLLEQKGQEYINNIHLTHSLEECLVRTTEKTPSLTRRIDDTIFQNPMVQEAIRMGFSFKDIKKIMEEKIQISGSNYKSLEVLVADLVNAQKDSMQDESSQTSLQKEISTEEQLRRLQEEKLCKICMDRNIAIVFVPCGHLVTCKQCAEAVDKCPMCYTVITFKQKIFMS

[3] = molecular target: T1, E3 ubiquitin-protein ligase XIAP; experiment: Chemical Antagonists of IAP-family anti-apoptotic proteins confirmation. [Related pubchem assays (depositor defined):AID1018, AID1513, AID1514, AID1638, AID1749, AID1750, AID488957, AID488963]
[4] = molecular target: Alkaline phosphatase, placental type (Homo sapiens, UniProt P05187); experiment: PLAP enzyme inhibitors, confirmation, biochemical, luminescence (AID 1512); format: functional
Sequence of Alkaline phosphatase, placental type (P05187 whole entry): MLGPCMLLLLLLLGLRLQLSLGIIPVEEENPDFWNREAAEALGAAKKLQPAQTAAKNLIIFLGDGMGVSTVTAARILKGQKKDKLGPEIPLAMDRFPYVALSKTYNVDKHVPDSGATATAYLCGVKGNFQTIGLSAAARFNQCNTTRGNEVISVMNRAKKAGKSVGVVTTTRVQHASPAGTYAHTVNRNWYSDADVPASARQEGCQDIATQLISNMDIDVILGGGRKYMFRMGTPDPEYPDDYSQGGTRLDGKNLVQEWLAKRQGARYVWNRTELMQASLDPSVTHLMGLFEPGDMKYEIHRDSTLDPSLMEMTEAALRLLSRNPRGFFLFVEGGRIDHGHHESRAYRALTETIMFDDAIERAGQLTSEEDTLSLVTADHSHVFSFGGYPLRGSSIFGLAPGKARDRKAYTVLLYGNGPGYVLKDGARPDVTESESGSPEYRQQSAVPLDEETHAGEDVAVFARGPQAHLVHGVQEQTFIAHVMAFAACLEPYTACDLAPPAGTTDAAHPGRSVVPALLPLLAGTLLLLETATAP

[5] = molecular target: T2, Alkaline phosphatase, tissue-nonspecific isozyme (Homo sapiens, UniProt P05186); experiment: human TNAP enzyme inhibitors, SAR follow-up, biochemical, luminescent, dose response (AID 1056)
T2 sequence (P05186 whole entry): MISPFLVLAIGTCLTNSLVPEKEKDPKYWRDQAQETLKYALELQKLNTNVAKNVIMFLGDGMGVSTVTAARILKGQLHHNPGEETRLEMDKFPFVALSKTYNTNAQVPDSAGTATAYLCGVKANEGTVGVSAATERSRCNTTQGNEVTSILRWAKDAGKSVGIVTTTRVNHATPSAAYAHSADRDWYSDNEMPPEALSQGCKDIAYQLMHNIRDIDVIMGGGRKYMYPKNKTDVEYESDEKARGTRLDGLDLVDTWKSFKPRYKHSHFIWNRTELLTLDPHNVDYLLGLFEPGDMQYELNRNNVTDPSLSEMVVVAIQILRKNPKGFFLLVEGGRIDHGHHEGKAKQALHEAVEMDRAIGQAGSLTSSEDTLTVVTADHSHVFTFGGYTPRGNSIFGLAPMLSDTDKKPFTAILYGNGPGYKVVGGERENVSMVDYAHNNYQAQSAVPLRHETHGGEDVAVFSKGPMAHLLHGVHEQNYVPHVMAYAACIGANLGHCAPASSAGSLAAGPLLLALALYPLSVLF

Cannabinoid receptor 1 [6] = molecular target: T3, Cannabinoid receptor 1 (Homo sapiens, UniProt P21554); experiment: SAR analysis of agonists of the Cannabinoid Receptor 1 using an Image-Based Assay - Set 3. [Related pubchem assays (depositor defined):AID1961, AID1965]; format: functional
T3 sequence (P21554 whole entry): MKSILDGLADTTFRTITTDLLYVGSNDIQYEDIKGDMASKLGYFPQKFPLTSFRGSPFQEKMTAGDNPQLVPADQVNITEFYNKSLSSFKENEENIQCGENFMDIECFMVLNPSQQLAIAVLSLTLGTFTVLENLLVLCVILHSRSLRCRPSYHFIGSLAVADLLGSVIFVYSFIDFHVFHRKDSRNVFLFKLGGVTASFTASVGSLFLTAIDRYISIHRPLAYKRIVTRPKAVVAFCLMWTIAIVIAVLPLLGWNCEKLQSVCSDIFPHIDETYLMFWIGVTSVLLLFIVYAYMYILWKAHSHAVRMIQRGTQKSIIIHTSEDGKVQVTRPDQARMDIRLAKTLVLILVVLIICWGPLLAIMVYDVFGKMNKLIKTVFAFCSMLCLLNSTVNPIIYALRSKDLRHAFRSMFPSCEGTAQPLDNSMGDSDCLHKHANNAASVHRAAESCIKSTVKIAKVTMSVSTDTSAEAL

[7] = molecular target: G-protein coupled receptor 55 (Homo sapiens, UniProt Q9Y2T6); experiment: SAR analysis of selective Agonists of GPR55 using an Image-Based Assay - Set 2. [Related pubchem assays (depositor defined):AID1961, AID1965]; format: functional
Sequence of G-protein coupled receptor 55 (Q9Y2T6 whole entry): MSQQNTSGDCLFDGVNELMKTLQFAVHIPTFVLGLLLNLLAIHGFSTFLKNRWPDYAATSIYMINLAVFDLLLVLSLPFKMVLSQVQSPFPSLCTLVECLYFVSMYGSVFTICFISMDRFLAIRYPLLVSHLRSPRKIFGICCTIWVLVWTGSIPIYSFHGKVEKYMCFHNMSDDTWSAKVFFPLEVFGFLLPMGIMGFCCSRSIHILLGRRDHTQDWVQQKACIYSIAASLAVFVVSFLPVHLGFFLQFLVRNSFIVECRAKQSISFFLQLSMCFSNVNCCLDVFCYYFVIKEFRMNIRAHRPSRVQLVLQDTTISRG

[8] = molecular target: T4, G-protein coupled receptor 35 (Homo sapiens, UniProt Q9HC97); experiment: SAR analysis of Agonists of the GPR35 Receptor using an Image-Based Assay - Set 3. [Related pubchem assays (depositor defined):AID1961, AID1965]; format: functional
T4 sequence (Q9HC97 whole entry): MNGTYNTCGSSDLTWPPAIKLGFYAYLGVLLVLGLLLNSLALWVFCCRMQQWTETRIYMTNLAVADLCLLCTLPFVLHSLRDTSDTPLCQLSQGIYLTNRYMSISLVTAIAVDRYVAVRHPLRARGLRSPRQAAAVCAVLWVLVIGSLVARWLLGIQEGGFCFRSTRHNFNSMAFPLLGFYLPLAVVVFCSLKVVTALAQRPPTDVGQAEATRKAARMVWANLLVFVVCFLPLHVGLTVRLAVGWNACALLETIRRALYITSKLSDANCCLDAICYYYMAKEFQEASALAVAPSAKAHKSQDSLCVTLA

Cannabinoid receptor 2 [9] = molecular target: T5, Cannabinoid receptor 2 (Homo sapiens, UniProt P34972); experiment: SAR analysis of agonists of the Cannabinoid Receptor 2 using an Image-Based Assay - Set 2. [Related pubchem assays (depositor defined):AID1961, AID1965]; format: functional
T5 sequence (P34972 whole entry): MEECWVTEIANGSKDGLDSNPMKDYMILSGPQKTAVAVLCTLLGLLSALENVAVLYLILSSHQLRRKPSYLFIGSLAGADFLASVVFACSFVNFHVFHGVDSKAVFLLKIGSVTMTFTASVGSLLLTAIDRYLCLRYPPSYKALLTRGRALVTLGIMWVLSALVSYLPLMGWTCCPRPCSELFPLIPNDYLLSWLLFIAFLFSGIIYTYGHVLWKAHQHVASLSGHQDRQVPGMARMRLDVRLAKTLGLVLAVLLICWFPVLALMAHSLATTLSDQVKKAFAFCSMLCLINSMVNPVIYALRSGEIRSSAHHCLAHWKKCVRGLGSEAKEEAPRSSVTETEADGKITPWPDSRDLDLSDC

[10] = molecular target: T4, G-protein coupled receptor 35; experiment: SAR analysis of Antagonists of the GPR35 Receptor using an Image-Based Assay - Set 4. [Related pubchem assays (depositor defined):[…]]; format: functional
Cannabinoid receptor 1 [11] = molecular target: T3, Cannabinoid receptor 1; experiment: SAR analysis of antagonists of the Cannabinoid Receptor 1 using an Image-Based Assay - Set 3. [Related pubchem assays (depositor defined):AID1961, AID1965]; format: functional
Cannabinoid receptor 2 [12] = molecular target: T5, Cannabinoid receptor 2; experiment: SAR analysis of antagonists of the Cannabinoid Receptor 2 using an Image-Based Assay - Set 2. [Related pubchem assays (depositor defined):AID1961, AID1965]; format: functional
INS1 = experiment: beta cell apoptosis inhibitors, cytokine rescue, dose response, luminescence, retest (AID 449756); format: functional, cell-based; conditions: Rattus norvegicus;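 note: cell death triggered by IL-1 beta plus TNF-alpha plus IFN-gamma mixture; protective hits raise ATP signal compared with cytokine alone wells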
Streptococcus = experiment: Group A Streptococcus viability loss, dose response, counter-screen for streptokinase expression inhibitor project, luminescence, BacTiterGlo (AID 1915); format: functional, organism-based;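 note: potency for reduction of bacterial viability or growth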
[13] = molecular target: Heat shock protein HSP 90-alpha (Homo sapiens, UniProt P07900); format: functional, organism-based
[14] = system: Streptococcus sp. 'group A'; experiment: growth inhibition of control SK(-) GAS strain, dose response, counter-screen for streptokinase expression inhibitor project, luminescence, kanamycin, BacTiterGlo, confirmation (AID 1900); format: functional, organism-based
Troponin, cardiac muscle = Troponin, cardiac muscle (Homo sapiens, UniProt P19429+P45379+P63316); experiment: Fluorescence-based biochemical high throughput dose response assay for activators of the calcium sensitivity of cardiac Regulated Thin Filaments (RTF). [Related pubchem assays (depositor defined):AID493008, AID493018, AID504382, AID504383]; format: protein-complex assay

Sequence of Peroxisome proliferator-activated receptor gamma (P37231 whole entry): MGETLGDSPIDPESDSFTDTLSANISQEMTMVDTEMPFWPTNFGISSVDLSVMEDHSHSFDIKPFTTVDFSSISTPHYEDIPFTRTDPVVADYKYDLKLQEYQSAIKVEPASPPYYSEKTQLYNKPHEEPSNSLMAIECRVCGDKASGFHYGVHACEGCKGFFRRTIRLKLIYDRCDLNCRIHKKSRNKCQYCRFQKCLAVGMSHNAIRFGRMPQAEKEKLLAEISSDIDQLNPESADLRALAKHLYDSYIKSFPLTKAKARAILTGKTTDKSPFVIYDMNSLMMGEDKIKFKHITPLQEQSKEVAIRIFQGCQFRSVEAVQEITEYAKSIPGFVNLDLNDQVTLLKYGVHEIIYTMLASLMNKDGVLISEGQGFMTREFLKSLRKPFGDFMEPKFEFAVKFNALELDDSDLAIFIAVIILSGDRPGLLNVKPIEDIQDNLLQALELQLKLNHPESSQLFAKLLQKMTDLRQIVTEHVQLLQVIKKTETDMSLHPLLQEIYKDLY

In the case of `COc1cccc(Cn2nc3c4cc(F)ccc4n(Cc4ccc(F)cc4)cc-3c2=O)c1`, the EC50 [1] is reported as 0.502 µM (active).
In the case of `O=C(O)C(c1ccc(F)cc1)N1Cc2ccccc2C1=O` (configuration not stated), the IC50 [2] is reported as > 200 µM (inactive) and the IC50 [3] is reported as > 200 µM (inactive).
With `O=C(NC1(C(F)(F)F)Oc2ccccc2O1)Sc1ccccc1` the IC50 [4] was 92.3 µM (active) and the IC50 [5] was > 100 µM (inactive).
In the case of `COc1ccc(S(=O)(=O)N2CCOCC2)cc1NC(=O)c1ccc(OCC(C)C)c(OC)c1`, the EC50 (Cannabinoid receptor 1 [6]) is reported as > 32 µM (inactive), the EC50 [7] is reported as 4.56 µM (active) and the EC50 [8] is reported as > 32 µM (inactive). The EC50 (Cannabinoid receptor 2 [9]) was > 32 µM (inactive), the IC50 [10] was > 32 µM (inactive) and the IC50 (Cannabinoid receptor 1 [11]) was > 32 µM (inactive). The IC50 (Cannabinoid receptor 2 [12]) was > 32 µM (inactive).
In the case of `O=C(N/N=C/c1sc2ccccc2c1O)c1ccccc1`, the AC50 (INS1) is reported as 0.864 µM (active), the EC50 (Streptococcus) is reported as 10.1 µM (active) and the AC50 [13] is reported as 1.02 µM (active). The EC50 [14] was 0.702 µM (active) and the EC50 (Troponin, cardiac muscle) was 3.91 µM (active).
